{"source": "patent US20180049433A1", "about": "“SEMIOCHEMICAL COMPOSITIONS FOR THE PREVENTION OF HEMATOPHAGOUS DIPTERA INSECTS FROM LANDING AND BITING ANIMALS” (INSTITUTE DE RECHERCHE EN SEMIOCHIMIE ET ETHOLOGIE APPLIQUEE, priority 2015, published 2018)", "key": {"[1]": {"tested_on": "Culex pipiens quinquefasciatus", "test": "Mosquito engorgement test on treated shaved guinea pigs, Culex pipiens quinquefasciatus", "assay_type": "in vivo", "description": "The tests were undertaken using experimental cages, which were composed of a plastic frame having the dimensions 29×29×29 cm. A sleeve of mosquito netting was placed over the cage. The sleeves of the netting were closed with rubber bands thus preventing light from entering the cages.\nIn each cage the mosquitoes had at their disposition a little water placed in a jar.\nThe mosquitoes that were used in this experiment were Culex pipiens quinquefasciatus. In each cage 50 female mosquitoes were introduced.\nThe day before the test 50 […] female mosquitoes were introduced into their experimental cage. The mosquitoes were deprived of a source of sugar at least twelve hours before the test.\nThe mosquitoes were collected by suction on the walls of the experimental cage with a mouth vacuum that was connected to a suction pump. To avoid errors, the mosquitoes were removed and introduced in lots of five. The sex was determined by observation of their antennas, since the male's antennas are more feathery.\nOnce the mouth vacuum was empty in the experimental cage the health of the mosquitoes was verified. To be used in the experiment, the mosquitoes had to be able to fly. Before the test the dead mosquitoes or those mosquitoes that could not fly were replaced with healthy ones.\nPrior to starting the experiment the mosquitoes were tested to determine if the mosquitoes were ready to bite. This was verified by introducing a hand washed with soap and without any smell in the experimental cage. If more than three mosquitoes posed on the hand voluntarily within a delay of 30 seconds, then it was deemed that the mosquitoes were ready to bite. The hand was withdrawn when the three mosquitoes posed on it or when the 30 second time period was up. This test was repeated every minute for a maximum of 5 minutes, until a positive result was obtained. If no positive result was obtained the experiment was postponed.\nA herd of guinea pigs males and females aging from 4 months to 3 years were used in the experiments. The guinea pig was anesthetized by injecting 1 mg/kg (live weight) of Zoletil® 20 in the thigh. A thin layer of Ocryl® gel was placed on the eyes of the guinea pigs.\nThe abdominal zone of the guinea pigs were carefully shaved from the teats to the base of the thorax. The area that was shaved was 8 cm from the base of the thorax to the teats by 6 cm from left to right of the guinea pig. This was done using a transparent template.\nAfter shaking the sprayer containing the insect bite inhibiting semiochemical, each guinea pig was sprayed 3 times (0.5 ml total) in the center of the shaved region. After the first administration, the product was spread with the little finger, in which the hand is covered by a vinyl glove, towards the teats. After the second administration by spraying the product was spread with the gloved little finger towards the thorax. After the third administration by spraying the product was spread over the entire shaved surface. The product was permitted to dry for a period of five minutes.\nAt the bottom of the experimental cage a transparent sheet was placed in which a rectangle of 7 cm by 5 cm was cut in the center. Another cover sheet cut with the same dimensions as the transparent sheet was made and the two rectangles were superimposed on one another and stapled together with 8 staples.\nThe shaved zone of the guinea pig was centered over the rectangular transparent sheet and the guinea pigs were exposed to the mosquitoes for 30 minutes. See, FIGS. 2 and 3.\nAt the end of 30 minutes, the mosquitoes were recovered by mouth vacuum. They were then enclosed in a plastic bag that contained a paper soaked with ethyl acetate. After 3 minutes the mosquitoes were aligned on a strip of scotch tape that was labeled with the number of the experiment, the date, the name of the guinea pig in the experiment and the treatment that was applied.\nEach treatment was tested with a control."}, "[2]": {"tested_on": "Culex pipiens quinquefasciatus", "test": "Mosquito engorgement test on treated cats, Culex pipiens quinquefasciatus", "assay_type": "in vivo", "details": "cat", "procedure": "Other tests were performed on guinea pigs and cats using combinations of D, which is 3-cyclopentyl propanoic acid, F, which is 3-cyclohexyl propanoic acid, X, which is 3-cyclohexyl 2-methyl propanoic acid and W, which is 3-cyclopentyl 2-methyl propanoic acid.\nThe same experiment was conducted in the same manner as in Example 4 using guinea pigs, chickens and cats. The mosquitoes used in this experiment were Culex sp, Aedes sp and Anopheles.\nThe procedure that was followed was that in Example 4, except that cats (Felis domesticus) were tested instead of guinea pigs. The mosquitoes that were used in this experiement were Culex pipiens quinquefasciatus and Aedes aegypti."}, "insects": {"tested_on": "insects", "details": "cited from earlier work"}, "[3]": {"details": "guinea pig, solution 0.3%, dose 31 μg/cm^2, 30 min exposure"}, "[4]": {"details": "guinea pig, dose 31 μg/cm^2 (Table 7)"}, "[5]": {"details": "guinea pig, solution 0.1%, dose not given, 30 min exposure"}, "[6]": {"details": "guinea pig, solution 3.0%, dose 31 μg/cm^2, 30 min exposure"}, "[7]": {"details": "guinea pig, solution 0.3%, dose 33 μg/cm^2, 30 min exposure"}, "[8]": {"details": "solution 3.0%, dose 324 μg/cm^2, 30 min exposure"}}, "note": "Several values for one entry are separate records, joined by “and”; a condition that tells them apart may be missing. Identical values can stand only once. Like-named read-outs stand apart in the source and are kept apart here.", "data": [{"compound": "C=C(C)[C@H]1CC=C(C)CC1", "note": "[limonene, reference compound]", "values": [{"measurement": "% bites tested", "setting": "[1]; [3]", "result": 58, "unit": "%"}, {"measurement": "% efficacy", "setting": "[1]; [3]", "result": "−19", "unit": "%"}]}, {"compound": "CC(CC1CCCC1)C(=O)O", "note": "(stereo not shown) [methylated 3-CPP, 3-cyclopentyl 2-methyl propanoic acid]", "values": [{"measurement": "% efficacy", "setting": "[1]; [4]", "result": 89, "unit": "%"}]}, {"compound": "Cc1ncc(CO)c(CO)c1O", "note": "[Vit. B6, reference compound]", "values": [{"measurement": "% bites tested", "setting": "[1]; [5]", "result": 87, "unit": "%"}, {"measurement": "% efficacy", "setting": "[1]; [5]", "result": "−19", "unit": "%"}]}, {"compound": "pinene [reference compound]", "values": [{"measurement": "% bites tested", "setting": "[1]; [3]", "result": 23, "unit": "%"}, {"measurement": "% efficacy", "setting": "[1]; [3]", "result": 30, "unit": "%"}]}, {"compound": "CC(C)=CCC/C(C)=C/CO", "note": "[geraniol, reference compound]", "values": [{"measurement": "% bites tested", "setting": "[1]; [3]", "result": 25, "unit": "%"}, {"measurement": "% efficacy", "setting": "[1]; [3]", "result": 58, "unit": "%"}, {"measurement": "% bites tested", "setting": "[1]; [6]", "result": 0, "unit": "%"}, {"measurement": "% efficacy", "setting": "[1]; [6]", "result": 100, "unit": "%"}]}, {"compound": "methylated cyclohexyl acetic acid [methylated CHA]", "values": [{"measurement": "% efficacy", "setting": "[1]; [4]", "result": 77, "unit": "%"}]}, {"compound": "O=C(O)CCC1CCCC1", "note": "[3-CPP, 3-cyclopentyl propionic acid]", "values": [{"measurement": "% bites tested", "setting": "[1]; [3]", "result": "4% and 5% and 1% and 11%"}, {"measurement": "% efficacy", "setting": "[1]; [3]", "result": "94% and 85% and 91% and 82%"}, {"measurement": "% bites tested", "setting": "[1]; [7]", "result": 0, "unit": "%"}, {"measurement": "% efficacy", "setting": "[1]; [7]", "result": 100, "unit": "%"}, {"measurement": "% bites tested", "setting": "[1]; [8]", "result": 0, "unit": "%"}, {"measurement": "% efficacy", "setting": "[1]; [8]", "result": 100, "unit": "%"}, {"measurement": "% efficacy", "setting": "[2]; 3.0%, dose 314 μg/cm^2", "result": 100, "unit": "%"}, {"measurement": "Number of bites of the solution used", "setting": "[2]; 3.0%, dose 314 μg/cm^2", "result": 0, "unit": "%"}, {"measurement": "% efficacy", "setting": "[2]; dose 32 μg/cm^2", "result": "94% and 100%"}, {"measurement": "% efficacy", "setting": "[2]; dose 324 μg/cm^2", "result": 100, "unit": "%"}]}, {"compound": "Cc1ncc(C[n+]2csc(CCO)c2C)c(N)n1", "note": "[Vit. B1, reference compound]", "values": [{"measurement": "% bites tested", "setting": "[1]; [5]", "result": 93, "unit": "%"}, {"measurement": "% efficacy", "setting": "[1]; [5]", "result": 2, "unit": "%"}]}, {"compound": "CCN(CC)C(=O)c1cccc(C)c1", "note": "[DEET, N,N-diethyl-meta-toluamide]", "values": [{"measurement": "protection time", "setting": "insects; encapsulated DEET", "result": "up to 10 hours"}, {"measurement": "protection time", "setting": "insects; product containing 4.75% of DEET", "result": "one and a half"}, {"measurement": "protection time", "setting": "insects; product containing 23.8% of DEET", "result": "five"}]}, {"compound": "O=C(O)CC1CCCCC1", "note": "[CHA, cyclohexyl acetic acid]", "values": [{"measurement": "% bites tested", "setting": "[1]; [3]", "result": 8, "unit": "%"}, {"measurement": "% efficacy", "setting": "[1]; [3]", "result": 86, "unit": "%"}]}, {"compound": "CC12CCC(CC1)C(C)(C)O2", "note": "[eucalyptol, reference compound]", "values": [{"measurement": "% bites tested", "setting": "[1]; [3]", "result": 43, "unit": "%"}, {"measurement": "% efficacy", "setting": "[1]; [3]", "result": "−14", "unit": "%"}]}, {"compound": "CC1=CC[C@@H](C(C)(C)O)CC1", "note": "[alpha terpineol, reference compound]", "values": [{"measurement": "% bites tested", "setting": "[1]; [3]", "result": 32, "unit": "%"}, {"measurement": "% efficacy", "setting": "[1]; [3]", "result": 48, "unit": "%"}]}, {"compound": "CC(CC1CCCCC1)C(=O)O", "note": "(stereo not shown) [methylated 3-CHP, 3-cyclohexyl 2-methyl propanoic acid]", "values": [{"measurement": "% efficacy", "setting": "[1]; [4]", "result": 67, "unit": "%"}]}]}
